Data on twelve compounds can be found in US11739098B2 (BRISTOL-MYERS SQUIBB COMPANY, priority 2017, dated 2023).

What all share (assay type): cell-based
One assay has as its target T1, human TLR8 (Homo sapiens, UniProt Q9NR97).
T1 construct: host or cells: HEK-Blue cells (HEK293-derived reporter line)
T1 sequence (Q9NR97 27-1041): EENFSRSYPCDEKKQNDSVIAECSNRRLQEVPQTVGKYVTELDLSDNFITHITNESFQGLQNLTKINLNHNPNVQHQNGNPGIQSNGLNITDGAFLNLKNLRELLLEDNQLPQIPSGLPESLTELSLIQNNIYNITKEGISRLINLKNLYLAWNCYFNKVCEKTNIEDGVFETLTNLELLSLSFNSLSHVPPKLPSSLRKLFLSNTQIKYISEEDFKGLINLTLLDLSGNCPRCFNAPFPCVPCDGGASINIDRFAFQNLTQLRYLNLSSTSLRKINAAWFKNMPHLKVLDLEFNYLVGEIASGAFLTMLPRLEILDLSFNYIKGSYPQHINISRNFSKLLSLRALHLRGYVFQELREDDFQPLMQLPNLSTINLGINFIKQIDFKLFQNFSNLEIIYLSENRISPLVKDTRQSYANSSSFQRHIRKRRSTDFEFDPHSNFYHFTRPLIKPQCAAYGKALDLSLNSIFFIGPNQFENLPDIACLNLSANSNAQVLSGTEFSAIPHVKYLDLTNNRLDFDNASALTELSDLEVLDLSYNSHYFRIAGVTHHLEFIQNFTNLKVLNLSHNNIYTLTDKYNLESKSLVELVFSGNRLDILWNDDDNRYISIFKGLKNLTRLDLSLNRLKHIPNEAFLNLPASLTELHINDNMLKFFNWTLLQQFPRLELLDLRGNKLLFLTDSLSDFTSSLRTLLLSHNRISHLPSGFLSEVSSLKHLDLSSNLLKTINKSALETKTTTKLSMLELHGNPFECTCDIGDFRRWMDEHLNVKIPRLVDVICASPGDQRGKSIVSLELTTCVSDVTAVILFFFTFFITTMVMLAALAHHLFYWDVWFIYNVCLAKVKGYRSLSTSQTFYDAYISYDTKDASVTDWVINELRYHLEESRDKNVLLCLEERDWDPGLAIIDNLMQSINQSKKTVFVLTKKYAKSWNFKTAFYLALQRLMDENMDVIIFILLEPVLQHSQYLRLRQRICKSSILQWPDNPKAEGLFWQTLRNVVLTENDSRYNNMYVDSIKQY
As to the kind of experiment: TLR8 inhibition reporter assay (HEK-Blue cells, SEAP reporter, R848 stimulation). To be noted: HEK-Blue cells overexpressing human TLR8, SEAP reporter, R848 15.9 μM. The method in brief:
(§1)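 Cells seeded per well (15000 TLR7, 20,000 TLR8, 25,000 TLR9); compound added over 0.05 nM–50 μM for 30 min at room temperature; agonist added (TLR7 gardiquimod 7.5 μM, TLR8 R848 15.9 μM, TLR9 ODN2006 5 nM); 22 h at 37 °C; SEAP measured; percent inhibition calculated.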

In another assay the target is T2, human TLR7 (Homo sapiens, UniProt Q9NYK1).
T2 construct: host or cells: HEK-Blue cells (HEK293-derived reporter line)
T2 sequence (Q9NYK1 27-1049): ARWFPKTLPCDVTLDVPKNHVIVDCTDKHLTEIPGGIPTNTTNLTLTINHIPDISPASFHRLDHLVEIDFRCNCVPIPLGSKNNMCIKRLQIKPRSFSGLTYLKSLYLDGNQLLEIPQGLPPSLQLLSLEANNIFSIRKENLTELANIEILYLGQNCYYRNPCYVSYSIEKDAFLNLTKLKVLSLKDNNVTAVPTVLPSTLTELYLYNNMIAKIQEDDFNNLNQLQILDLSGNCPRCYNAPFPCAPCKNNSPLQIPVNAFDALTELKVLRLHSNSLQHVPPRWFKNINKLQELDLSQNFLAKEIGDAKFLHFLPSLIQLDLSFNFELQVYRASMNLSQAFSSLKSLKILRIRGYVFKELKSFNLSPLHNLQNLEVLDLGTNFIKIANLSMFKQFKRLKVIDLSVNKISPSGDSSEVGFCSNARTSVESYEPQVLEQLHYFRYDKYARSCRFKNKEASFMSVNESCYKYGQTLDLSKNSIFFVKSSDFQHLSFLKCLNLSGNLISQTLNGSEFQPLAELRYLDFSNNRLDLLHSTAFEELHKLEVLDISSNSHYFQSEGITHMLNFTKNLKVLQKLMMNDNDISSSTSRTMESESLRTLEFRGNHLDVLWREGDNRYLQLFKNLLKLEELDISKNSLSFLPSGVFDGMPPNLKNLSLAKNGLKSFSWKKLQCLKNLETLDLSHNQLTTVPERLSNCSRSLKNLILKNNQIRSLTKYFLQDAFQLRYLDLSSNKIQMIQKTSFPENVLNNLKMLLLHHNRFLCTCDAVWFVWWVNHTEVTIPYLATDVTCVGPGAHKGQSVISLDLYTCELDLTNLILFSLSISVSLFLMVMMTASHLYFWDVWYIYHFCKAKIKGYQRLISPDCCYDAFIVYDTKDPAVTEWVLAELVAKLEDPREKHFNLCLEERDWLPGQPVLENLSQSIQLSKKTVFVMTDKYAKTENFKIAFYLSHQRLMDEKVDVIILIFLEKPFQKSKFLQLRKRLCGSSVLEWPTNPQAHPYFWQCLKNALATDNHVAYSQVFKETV
As to the kind of experiment: TLR7 inhibition reporter assay (HEK-Blue cells, SEAP reporter, gardiquimod stimulation). The conditions noted are these: HEK-Blue cells overexpressing human TLR7, SEAP reporter, gardiquimod 7.5 μM. The method in brief:
as §1

The target of another assay is T3, human TLR9 (Homo sapiens, UniProt Q9NR96).
T3 construct: host or cells: HEK-Blue cells (HEK293-derived reporter line)
T3 sequence (Q9NR96 26-1032): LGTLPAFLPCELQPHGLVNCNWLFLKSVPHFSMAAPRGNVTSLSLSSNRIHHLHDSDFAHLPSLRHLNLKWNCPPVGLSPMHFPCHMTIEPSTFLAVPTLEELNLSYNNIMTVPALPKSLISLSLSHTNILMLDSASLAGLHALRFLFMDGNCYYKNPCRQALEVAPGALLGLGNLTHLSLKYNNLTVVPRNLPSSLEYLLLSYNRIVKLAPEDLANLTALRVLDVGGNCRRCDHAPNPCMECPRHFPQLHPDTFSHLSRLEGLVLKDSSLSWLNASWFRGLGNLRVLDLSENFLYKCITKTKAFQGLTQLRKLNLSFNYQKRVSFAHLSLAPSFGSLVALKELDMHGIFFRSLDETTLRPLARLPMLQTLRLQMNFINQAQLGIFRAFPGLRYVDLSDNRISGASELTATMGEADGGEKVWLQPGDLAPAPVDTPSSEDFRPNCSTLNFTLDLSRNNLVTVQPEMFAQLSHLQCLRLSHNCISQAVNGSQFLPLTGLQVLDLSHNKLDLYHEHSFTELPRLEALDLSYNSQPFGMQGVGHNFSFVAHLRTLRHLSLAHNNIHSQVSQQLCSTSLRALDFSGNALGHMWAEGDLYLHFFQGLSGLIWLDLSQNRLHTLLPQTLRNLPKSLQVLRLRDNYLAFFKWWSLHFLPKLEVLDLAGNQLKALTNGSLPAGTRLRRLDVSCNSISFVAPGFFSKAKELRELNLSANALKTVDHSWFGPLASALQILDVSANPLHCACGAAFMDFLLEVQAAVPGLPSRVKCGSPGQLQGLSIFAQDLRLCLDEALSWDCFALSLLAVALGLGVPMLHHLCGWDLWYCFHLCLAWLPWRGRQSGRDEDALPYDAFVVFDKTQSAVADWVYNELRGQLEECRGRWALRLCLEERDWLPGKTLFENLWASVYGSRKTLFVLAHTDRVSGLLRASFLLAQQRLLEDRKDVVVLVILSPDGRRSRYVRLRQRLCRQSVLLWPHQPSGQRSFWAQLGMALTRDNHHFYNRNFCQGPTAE
As to the kind of experiment: TLR9 inhibition reporter assay (HEK-Blue cells, SEAP reporter, ODN2006 stimulation). To be noted: HEK-Blue cells overexpressing human TLR9, SEAP reporter, ODN2006 5 nM. The method in brief:
as §1

Structures are written as SMILES. pIC50: −log10 of the molar value. Bounds are passed on as bounds.

On to `CCc1c(-c2ccnc3[nH]ncc23)[nH]c2ccc(C3CCN(Cc4c(C)noc4C)CC3)cc12` [Example 893, 4-((4-(3-ethyl-2-(1H-pyrazolo[3,4-b]pyridin-4-yl)-1H-indol-5-yl)piperidin-1-yl)methyl)-3,5-dimethylisoxazole], for which the negative-log IC50 (pIC50) at human TLR8 was over 7.00; on human TLR7, 6.00 to 7.00; against human TLR9, 4.30 to 6.00.

Consider `CC(C)c1c(-c2ccnc3[nH]ncc23)[nH]c2ccc(C3CCN(Cc4ccc(OCCN(C)c5ccccn5)cc4)CC3)cc12` [Example 894, N-(2-(4-((4-(3-isopropyl-2-(1H-pyrazolo[3,4-b]pyridin-4-yl)-1H-indol-5-yl)piperidin-1-yl)methyl)phenoxy)ethyl)-N-methylpyridin-2-amine], for which the negative-log IC50 (pIC50) against human TLR8 is over 7.00; against human TLR7, 6.00 to 7.00; at human TLR9 it was 6.00 to 7.00.

Turning to `CC(C)c1c(-c2ccnc3[nH]ncc23)[nH]c2ccc(C3CCN(Cc4cnc5ccccc5c4)CC3)cc12` [Example 895, 3-((4-(3-isopropyl-2-(1H-pyrazolo[3,4-b]pyridin-4-yl)-1H-indol-5-yl)piperidin-1-yl)methyl)quinoline], the pIC50 against human TLR8 was over 7.00; against human TLR7, 6.00 to 7.00; against human TLR9, 4.30 to 6.00.

As to `CCCCc1nc(Cl)c(CN2CCC(c3ccc4[nH]c(-c5ccnc6[nH]ncc56)c(C(C)C)c4c3)CC2)[nH]1` [Example 896, 4-(5-(1-((2-butyl-4-chloro-1H-imidazol-5-yl)methyl)piperidin-4-yl)-3-isopropyl-1H-indol-2-yl)-1H-pyrazolo[3,4-b]pyridine], the results for the pIC50 against human TLR8, at human TLR7 and against human TLR9 were over 7.00, 6.00 to 7.00 and 4.30 to 6.00, respectively.

For `CCc1c(-c2ccnc3[nH]ncc23)[nH]c2ccc(C3CCN(Cc4cc(-c5ccccc5)on4)CC3)cc12` [Example 897, 3-((4-(3-ethyl-2-(1H-pyrazolo[3,4-b]pyridin-4-yl)-1H-indol-5-yl)piperidin-1-yl)methyl)-5-phenylisoxazole], the values for the pIC50 at human TLR8, against human TLR7 and at human TLR9 were 6.00 to 7.00, 4.30 to 6.00 and 4.30 to 6.00, respectively.

As to `CCc1c(-c2ccnc3[nH]ncc23)[nH]c2ccc(C3CCN(Cc4nc(C)oc4C)CC3)cc12` [Example 898, 4-((4-(3-ethyl-2-(1H-pyrazolo[3,4-b]pyridin-4-yl)-1H-indol-5-yl)piperidin-1-yl)methyl)-2,5-dimethyloxazole], the pIC50 is over 7.00 on human TLR8, 6.00 to 7.00 against human TLR7 and 4.30 to 6.00 at human TLR9.

With `CC(C)c1c(-c2ccnc3[nH]ncc23)[nH]c2ccc(C3CCN(Cc4ccc(Oc5ncccn5)cc4)CC3)cc12` [Example 899, 4-(3-isopropyl-5-(1-(4-(pyrimidin-2-yloxy)benzyl)piperidin-4-yl)-1H-indol-2-yl)-1H-pyrazolo[3,4-b]pyridine], the figures for the negative-log IC50 (pIC50) against human TLR8, against human TLR7 and against human TLR9 were over 7.00, over 7.00 and 6.00 to 7.00, respectively.

As to `CCc1c(-c2ccnc3[nH]ncc23)[nH]c2ccc(C3CCN(Cc4cc(C)n[nH]4)CC3)cc12` [Example 900, 4-(3-ethyl-5-(1-((3-methyl-1H-pyrazol-5-yl)methyl)piperidin-4-yl)-1H-indol-2-yl)-1H-pyrazolo[3,4-b]pyridine], the negative-log IC50 (pIC50) was over 7.00 against human TLR8, 6.00 to 7.00 against human TLR7 and 4.30 to 6.00 against human TLR9.

With `CCc1c(-c2ccnc3[nH]ncc23)[nH]c2ccc(C3CCN(Cc4cnn(C)c4)CC3)cc12` [Example 901, 4-(3-ethyl-5-(1-((1-methyl-1H-pyrazol-4-yl)methyl)piperidin-4-yl)-1H-indol-2-yl)-1H-pyrazolo[3,4-b]pyridine], the negative-log IC50 (pIC50) is over 7.00 at human TLR8, 6.00 to 7.00 on human TLR7 and 4.30 to 6.00 on human TLR9.

On to `COc1ccc2nc(Cl)c(CN3CCC(c4ccc5[nH]c(-c6ccnc7[nH]ncc67)c(C(C)C)c5c4)CC3)cc2c1` [Example 902, 2-chloro-3-((4-(3-isopropyl-2-(1H-pyrazolo[3,4-b]pyridin-4-yl)-1H-indol-5-yl)piperidin-1-yl)methyl)-6-methoxyquinoline], for which the results for the pIC50 against human TLR8, against human TLR7 and at human TLR9 were 6.00 to 7.00, 6.00 to 7.00 and under 4.30, respectively.

Take `CC(C)c1c(-c2ccnc3[nH]ncc23)[nH]c2ccc(C3CCN(Cc4cnccn4)CC3)cc12` [Example 903, 4-(3-isopropyl-5-(1-(pyrazin-2-ylmethyl)piperidin-4-yl)-1H-indol-2-yl)-1H-pyrazolo[3,4-b]pyridine]: the negative logarithm of the IC50 (pIC50) is over 7.00 against human TLR8, over 7.00 on human TLR7 and 4.30 to 6.00 against human TLR9.

For the compound `CC(C)c1c(-c2ccnc3[nH]ncc23)[nH]c2ccc(C3CCN(Cc4ccc(N5CCCC5)cc4)CC3)cc12` [Example 905, 4-(3-isopropyl-5-(1-(4-(pyrrolidin-1-yl)benzyl)piperidin-4-yl)-1H-indol-2-yl)-1H-5 pyrazolo[3,4-b]pyridine], the negative logarithm of the IC50 (pIC50) on human TLR8 was over 7.00; against human TLR7 it was 6.00 to 7.00; at human TLR9, 4.30 to 6.00.
